Molecules are shown by their SMILES. A value given as a limit tells only on which side of the number the result lay.

The melting point is the temperature, or range, at which the solid turns liquid. The molecule `CN1CCN(c2ccc(-c3nc(C(=O)Nc4nccs4)c(-c4ccc(Cl)cc4)[nH]3)cc2)CC1` had a melting point greater than 250 °C.
Regarding `CCCCOc1cc(/C=C(\OCC)C(=O)O)ccc1CCCc1ccc(OC)cc1`, the melting point worked out at 65 °C.
For `O=C(Nc1ccc(Cl)cc1)NC(c1ccccc1)C(O)c1ccccc1` (configuration not stated), the melting point was 198 °C.
In the case of `Cc1ccc(S(=O)(=O)OCC2COc3ccc(N)c(N)c3O2)cc1` (configuration not stated), the melting point was 178 to 180 °C.
As for `NCC(CC(=O)O)C1CCCC1` (configuration not stated), the melting point is 178 to 180 °C.
`O=C(O)c1cccc2c(=O)cc(-c3cccc(OCc4ccccc4)c3)oc12` showed a melting point of 121 to 122 °C.
Consider `c1ccc(C(c2ccccc2)(c2cncnc2)n2ccnc2)cc1`, for which the melting point came to 161 °C.
In turn, `CCc1[nH]c2cc(C)c(Oc3ccc(OC(F)(F)F)cc3)cc2c(=O)c1C` displayed a melting point of 281 to 283 °C.
As for `COC(=O)C(C)(O)c1ccc(-c2ccccc2)c(F)c1` (configuration not stated), the melting point lay within 59 to 61 °C.
Under `CCCc1c(O)c(C(C)=O)cc(Br)c1OCCCOc1c(C(C)=O)ccc(OCC(=O)O)c1CCC` stands 129 to 130 °C; under `CCCC(OC)c1ccc(Cl)c2nc3n(c12)CCCN3c1c(C)cc(Cl)cc1Cl` (configuration not stated), 151 to 152 °C; under `CCOC(=O)c1cnc2c(c(C)nn2-c2ccccn2)c1Cl`, 121 to 123 °C.
In turn, `CCOC(=O)c1sc(Cn2cc(Cl)cnc2=O)nc1C` had a melting point of 169 to 171 °C.
`Cc1cc(C(=O)C(=O)O)ccc1OCCOc1ccc2ccccc2c1` displayed a melting point of 167 to 169 °C.
The value for `COCC(=O)N1CCN(CCc2ccc(-c3cccc(N)n3)cc2)CC1` was 148 to 150 °C.
On to `c1ccc2c(c1)CCc1nc(-c3ccncc3)oc1-2`, for which the melting point is 129 to 130 °C.
For `COc1cc2c(cc1Nc1ncc(Cl)c(Nc3ccccc3OC)n1)CCN(C(=O)CN(C)C)CC2`, the melting point fell in the range of 76 to 99 °C.
`CN(C)c1c(-c2ccc(Cl)cc2)sc2ccccc12` registered a melting point of 81 to 83 °C.
Regarding `O=C1OC(CCl)CN1c1ccc(S(=O)(=O)C(F)(F)F)cc1` (configuration not stated), the melting point fell in the range of 121 to 123 °C.
Under `COP(=O)(Cc1cc(CP(=O)(OC)OC)cc(CP(=O)(OC)OC)c1)OC` stands 106 °C; under `CC(C)(CC/C=C\[C@@H]1C[C@@H](NS(=O)(=O)c2ccc(Cl)cc2)CN1S(=O)(=O)c1ccc(Cl)cc1)C(=O)O`, 159 to 160 °C; under `COc1ccc(COC(=O)c2nc(-c3ccc(Cl)c(OC)c3F)cc(N)c2Cl)cc1`, 73 to 83 °C.
With `N#Cc1ccc(NC(=S)NCc2ccccn2)cc1`, the melting point was determined as 144 °C.
`CCC(=O)Oc1cc(-c2nc3cc(F)ccc3s2)ccc1OC` had a melting point of 150 °C.
`COc1ccc(-c2[nH]nc3c2C(=O)c2c(NC(=O)NNC(=O)c4ccccc4)cccc2-3)cc1` returned a melting point greater than 300 °C.
For the molecule `O=C(O)CC1(c2ccc(Cl)c(Cl)c2)CCC(=O)NC1=O` (configuration not stated), the melting point turned out to be 203 °C.
In turn, `COc1ccc(-c2c(-c3ccccc3)nc3n2Cc2ccccc2C3)cc1` gave a melting point of 183 to 185 °C.
As to `CC(C)(C)c1cc(C(C)(C)C)c(O)c(S(=O)(=O)Nc2ccc([N+](=O)[O-])cc2Cl)c1`, the melting point fell in the range of 158 to 161 °C.
Take `CN(CCCNC(=O)c1cccc2nc3ccc(Cl)cc3nc12)CCCNC(=O)c1cccc2nc3ccc(Cl)cc3nc12`: the melting point was 210 to 212 °C.
The value for `CCCn1c(-c2ccc(-n3ccnc3)cc2)cnc1[C@H](Cc1ccccn1)N(C=O)c1cc2cc(C(F)(F)F)ccc2o1` was 92 to 98 °C.
Regarding `Nc1nc(N)c2cc(CCc3ccccc3)ccc2n1`, the melting point was in the range of 178 to 180 °C.
`CS(=O)(=O)c1ccc(C(CC2CCCC2)C(=O)Nc2nccs2)cc1` (configuration not stated) registered a melting point of 61 to 63 °C.
The molecule `COC(=O)/C(=C/C=C/c1ccc2ccccc2n1)OC` displayed a melting point of 88 °C.
Take `COc1ccc2c3c1OC1C(=O)C(COS(=O)(=O)c4ccc(C)cc4)(COS(=O)(=O)c4ccc(C)cc4)CC4C(C2)N(C)CCC314` (configuration not stated): the melting point was in the range of 150 to 153 °C.
As to `Fc1ccc(Cn2c(NC3CCN(CCc4ccccc4)C3)nc3ccccc32)cc1` (configuration not stated), the melting point stood at 126 °C.
For `O=C(O)c1cn(CC2CC2)c2cc(Cl)ccc12`, the melting point was 219 to 220 °C.
Consider `c1ccc(-n2c(-c3ccc(OCCCN4CCCCC4)cc3)nc3ccccc32)cc1`, for which the melting point was 86 °C.
Take `Cc1nc(Cl)c2ccccc2c1CC(=O)O`: the melting point was 180 to 183 °C.
`CCOCc1nc2c(N)nc3cc(-c4cccc(C(=O)N5CCOCC5)c4)cnc3c2n1CC(C)(C)O`: the melting point was in the range of 149 to 152 °C.
Regarding `COc1cc([N+](=O)[O-])c(C(=O)Cc2ccccc2)cc1O`, the melting point is 142 to 143 °C.
As for `Cc1c(C(=O)O)ccn2nc(-c3ccccc3)nc12`, the melting point is greater than 250 °C.
Molecule `CC(=O)N(C(C)=O)c1cc2c(cc1Cl)C(=O)C1(CCOC1=O)O2` (configuration not stated) yielded a melting point of 181 to 185 °C.
As for `CCOC(CNC(=S)Nc1ccccn1)OCC`, the melting point was in the range of 132 to 133 °C.
For `CS(=O)(=O)c1ccc(C(CC2CCCC2)C(=O)O)cc1F` (configuration not stated), the melting point lay in the range of 115 to 117 °C.
Under `C=C(Cc1ccccc1)C(=O)N[C@@H](CC(C)C)C(=O)O` stands 56 to 60 °C.
In turn, `O=C(O)c1cnc(Nc2ccccc2O)[nH]c1=O` gave a melting point of 254 to 256 °C.
As to `Cc1nc2c(N)nc3c(c2n1CCCCNC(=O)N1CCOCC1)CCCC3`, the melting point lay within 134 to 135 °C.
Under `COC(=O)[C@@H]1CCCN1S(=O)(=O)c1ccc(Cl)c(COc2cccc3c(C)cc(C)nc23)c1Cl` stands 138 °C; under `Nc1cc(C=O)nc(-c2ccc(C(F)(F)F)nc2)c1F`, 166 to 167 °C.
In turn, `O=C1CNN=C(c2ccccn2)N1` gave a melting point of 138 to 139 °C.
With `COC(=O)c1cc(Cl)cc2c1OC(C)C(=O)N2` (configuration not stated), the melting point is 186 to 189 °C.
As for `CCOC(=O)c1cc(-c2ccc(Cl)cc2)c(Cl)nc1N`, the melting point was 195 to 198 °C.
`CC(C)(C)C(NC(=O)c1cccc(I)c1)Nc1c(Nc2cccnc2)c(=O)c1=O` (configuration not stated) returned a melting point of 234 to 236 °C.
For `CON=C1CCC1N1CCC(Cc2ccc(Cl)cc2)CC1` (configuration not stated), the melting point is 127 to 128 °C.
Under `CCOc1ccc(-c2ccc3c(c2)C=C(C(=O)Nc2ccc(CN(C)C4CCOCC4)cc2)CCO3)cc1` stands 174 to 176 °C.
With `CN1CCC(OC2c3cccc(Br)c3CCn3cc(-c4ccccc4)nc32)CC1` (configuration not stated), the melting point stood at 83 °C.
Take `Cc1ccn2c(C(=O)NCc3ccccc3)c(C)nc2c1`: the melting point fell in the range of 166 to 167 °C.
Under `CCCCC(N=O)C(C)(C)Cl` (configuration not stated) stands 84 to 85 °C; under `N#CN1CCC(c2nn(-c3ccc(C(F)(F)F)cc3)c3ccccc23)CC1`, 135 to 136 °C; under `O=C(NCCCCCn1cnc2cnc3ccccc3c21)c1ccccc1`, 172 °C.
`C(=Cc1ccc(-c2nnc(-c3ccccc3)o2)cc1)c1ccc(-c2cnn(-c3ccccc3)n2)cc1` yielded a melting point of 209 to 210 °C.
Under `COC1(c2cccc(OCc3ccc4ccc(F)cc4c3)c2)CC(C)OC(C)C1` (configuration not stated) stands 77 °C; under `CC(C)(C)NC(=O)[C@@H]1CCCN1C(=O)[C@@H](O)[C@H](Cc1ccccc1)NC(=O)[C@H](CC(N)=O)NC(=O)COC1CCN(C(=O)OCc2ccccc2)CC1`, 98 to 104 °C; under `O=C(O)Cc1ccc(C(=O)c2ccc(Cl)cc2)[nH]1`, 210 °C.
`O=C(O)Cc1ccccc1SCc1cc(F)ccc1F` gave a melting point of 106 to 108 °C.
For the molecule `CCOC(=O)C1(NS(=O)(=O)c2ccc3c(Cl)cnc(Cl)c3c2)CCC1`, the melting point fell in the range of 123 to 125 °C.
`CC(=O)OC1COC(Oc2ccc(C(=S)c3ccc(C)cc3)cc2)C(OC(C)=O)C1OC(C)=O` (configuration not stated) came in with a melting point of 132 °C.
On to `CCOC(=O)C(=CN(C)c1cnsn1)C(=O)c1cc(F)c(Cl)nc1Cl`, for which the melting point lay in the range of 108 to 110 °C.
Under `Cc1c(NC(=O)C(CSC(=O)C(C)C)Cc2ccccc2)cccc1C(=O)O` (configuration not stated) stands 178 to 183 °C.
As for `CC1(c2cccc(N)c2)C2CN(Cc3ccccc3)C(=O)C21` (configuration not stated), the melting point was in the range of 150 to 151 °C.
Molecule `O=C1Oc2ccccc2Oc2ccccc21` displayed a melting point of 62 to 66 °C.
`CCC(=O)Nc1nc(-c2ccc(OC(F)F)cc2)cs1` had a melting point of 186 to 188 °C.
`CCc1cccc(N)c1C(=O)O`: the melting point was in the range of 99 to 104 °C.
Under `COc1ccccc1-c1cc(C(C)(C)C)c(O)c(C(C)(C)C)c1` stands 98.5 to 100 °C.
On to `O=C(O)Cc1ccc2c(c1)CC(CNS(=O)(=O)c1ccccc1)C2` (configuration not stated), for which the melting point lay in the range of 140 to 141 °C.
On to `CC1(C)CC(O)(C(F)(F)F)C(Nc2cccc3[nH]c(=O)ccc23)c2cc(O)c(Cl)cc21` (configuration not stated), for which the melting point is 158 °C.
In turn, `CC(C)(C)OC(=O)Nc1cc(-c2nnc(SCc3cccc(F)c3)o2)ccn1` displayed a melting point of 237 to 238 °C.
As for `CC(C)C[C@H](NC(=O)c1ccccc1Cl)C(=O)N[C@@H](C(C)C)[C@@H](O)c1c(-c2ccccc2)c1=O`, the melting point was in the range of 99 to 104 °C.
On to `CS(=O)(=O)c1ccc(C(CC2CCOCC2)c2ccc(-c3ccccn3)[nH]2)cn1` (configuration not stated), for which the melting point lay within 89 to 90 °C.
In turn, `COc1cc(C(=O)O)c(OC)c2ccccc12` returned a melting point of 142 to 144 °C.
`O=c1[nH]c2c(F)cc([N+](=O)[O-])cc2o1` returned a melting point of 177 to 179 °C.
In the case of `COc1ccc(/C=C(\C#N)c2c(Cl)cccc2Cl)cc1OC1CCCC1`, the melting point was in the range of 164 to 166 °C.
In turn, `CCOC(=O)C(C)(C)NC(=O)c1cccc(C2=NC(C)(C)Cc3cc(OC)c4c(c32)CC(C)(C)O4)c1` gave a melting point of 114 to 115 °C.
`CN1CC(C(=O)CN2CCOCC2)CC2c3cccc4c3c(cn4C)CC21` (configuration not stated): the melting point lay within 198 to 200 °C.
As to `Ic1ccc(N2CCCC2)cc1`, the melting point lay within 99.7 to 99.8 °C.
As for `O=C(Nc1cccc2c1C(=O)c1c-2n[nH]c1-c1ccc(C(=O)N2CCN(c3ccccn3)CC2)s1)NN1CCOCC1`, the melting point is 201 to 202 °C.
Molecule `c1cc(-c2n[nH]c3c2Cc2cc(CN4CCOCC4)ccc2-3)cs1` showed a melting point of 196 to 198 °C.

The values above are taken from a melting point compilation (Tetko et al.; mined from patent text by program, amines drawn as free bases though some values may be those of a salt).
